Experiments:
[1] = biological target: JAK1 (recombinant purified GST-tagged catalytic domain) (Homo sapiens (Human), UniProt P23458); experiment: Jak Biochemical HTRF Assay (JAK1); settings: [ATP] 31.8 μM
In short: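 Compounds in DMSO were pre-equilibrated with enzyme and biotinylated peptide, then ATP was added and the reaction proceeded 120 min at room temperature. EDTA-based stop buffer with detection reagents was added, and after 60 min the time-resolved FRET ratio was read. IC50s came from 4-parameter dose–response fits.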

[2] = biological target: JAK2 (recombinant purified GST-tagged catalytic domain) (Homo sapiens (Human), UniProt O60674); experiment: Jak Biochemical HTRF Assay (JAK2); settings: [ATP] 8.5 μM
Chain of JAK2 (recombinant purified GST-tagged catalytic domain) (O60674 849-1124): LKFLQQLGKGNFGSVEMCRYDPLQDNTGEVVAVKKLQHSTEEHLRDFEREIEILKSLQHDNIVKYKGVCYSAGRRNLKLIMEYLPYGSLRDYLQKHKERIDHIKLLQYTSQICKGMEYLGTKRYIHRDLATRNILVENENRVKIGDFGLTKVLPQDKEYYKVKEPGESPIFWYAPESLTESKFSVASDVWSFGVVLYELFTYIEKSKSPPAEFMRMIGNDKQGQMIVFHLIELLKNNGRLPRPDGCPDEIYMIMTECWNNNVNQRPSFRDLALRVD

Chain of JAK1 (recombinant purified GST-tagged catalytic domain) (P23458 875-1153): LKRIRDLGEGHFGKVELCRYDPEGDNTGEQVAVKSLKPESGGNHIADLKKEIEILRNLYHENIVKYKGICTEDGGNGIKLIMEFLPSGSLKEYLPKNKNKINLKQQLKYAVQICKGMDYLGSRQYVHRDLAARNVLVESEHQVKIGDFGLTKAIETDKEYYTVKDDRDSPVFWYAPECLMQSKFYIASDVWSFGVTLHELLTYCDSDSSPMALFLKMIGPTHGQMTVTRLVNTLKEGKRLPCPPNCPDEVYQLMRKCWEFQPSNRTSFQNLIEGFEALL

SMILES | IC50 [1] [nM] | IC50 [2] [nM]
CN(C)C(=O)[C@@H]1CC[C@@](CC#N)(n2nc(Nc3ccc(Cl)cc3)c3c(=O)[nH]ccc32)CO1 [Example 23, (2S,5S)-5-(3-((4-chlorophenyl)amino)-4-oxo-4,5-dihydro-1H-pyrazolo[4,3-c]pyridin-1-yl)-5-(cyanomethyl)-N,N-dimethyltetrahydro-2H-pyran-2-carboxamide] | 0.23 | 2.5
N#CCC1(n2nc(Nc3ccc(F)cc3)c3c(=O)[nH]ccc32)CCN(C(=O)C2CC2)CC1 [Example 7, [1-(cyclopropylcarbonyl)-4-{3-[(4-fluorophenyl)amino]-4-oxo-4,5-dihydro-1H-pyrazolo[4,3-c]pyridin-1-yl}piperidin-4-yl]acetonitrile] | 0.09 | 1.9
CC(F)(F)C(=O)N1CCC(CC#N)(n2nc(Nc3ccc(S(C)(=O)=O)cc3)c3c(=O)[nH]ccc32)CC1 [Example 17, 2-(1-(2,2-difluoropropanoyl)-4-(3-((4-(methylsulfonyl)phenyl)amino)-4-oxo-4,5-dihydro-1H-pyrazolo[4,3-c]pyridin-1-yl)piperidin-4-yl)acetonitrile] | 0.1 | 0.24
CN(C)S(=O)(=O)c1ccc(Nc2nn(C3(CC#N)CCN(C(=O)C45CC6C[C@H](C4)C[C@@H](C6)C5)CC3)c3cc[nH]c(=O)c23)cc1 [Example 9-9, 4-[(1-{4-(cyanomethyl)-1-[(3S,5S,7S)-tricyclo[3.3.1.1^3,7]dec-1-ylcarbonyl]piperidin-4-yl}-4-oxo-4,5-dihydro-1H-pyrazolo[4,3-c]pyridin-3-yl)amino]-N,N-dimethylbenzenesulfonamide] | 3.96 | 38.8

Further compounds by falling IC50 [1], results first:

IC50 [1] [nM] | IC50 [2] [nM] | SMILES
13.5 | 27.7 | CN(C)S(=O)(=O)c1ccc(Nc2nn([C@@]3(CC#N)CCCOC3)c3cc[nH]c(=O)c23)cc1 [Example 5-29, (R)-4-((1-(3-(cyanomethyl)tetrahydro-2H-pyran-3-yl)-4-oxo-4,5-dihydro-1H-pyrazolo[4,3-c]pyridin-3-yl)amino)-N,N-dimethyl benzenesulfonamide]
0.19 | 0.86 | CN(C)S(=O)(=O)c1ccc(Nc2nn(C3(CC#N)CCN(C(=O)Oc4ccccc4)CC3)c3cc[nH]c(=O)c23)cc1 [Example 10-2, phenyl 4-(cyanomethyl)-4-(3-((4-(N,N-dimethylsulfamoyl)phenyl)amino)-4-oxo-4,5-dihydro-1H-pyrazolo[4,3-c]pyridin-1-yl)piperidine-1-carboxylate]
0.18 | 0.4 | CC(C)(C)OC(=O)[C@@H]1CC[C@@](CC#N)(n2nc(Nc3ccc4c(c3)CN(C3CCCCC3)C4=O)c3c(=O)[nH]ccc32)CO1 [Example 5-101, (2S,5S)-tert-butyl 5-(cyanomethyl)-5-(3-((2-cyclohexyl-1-oxoisoindolin-5-yl)amino)-4-oxo-4,5-dihydro-1H-pyrazolo[4,3-c]pyridin-1-yl)tetrahydro-2H-pyran-2-carboxylate]
0.16 | 0.73 | Cc1cc(C)n(-c2ccc(Nc3nn([C@]4(CC#N)CC[C@@H](C(=O)OC(C)(C)C)OC4)c4cc[nH]c(=O)c34)cc2)n1 [Example 5-218, (2S,5S)-tert-butyl 5-(cyanomethyl)-5-(3-((4-(3,5-dimethyl-1H-pyrazol-1-yl)phenyl)amino)-4-oxo-4,5-dihydro-1H-pyrazolo[4,3-c]pyridin-1-yl)tetrahydro-2H-pyran-2-carboxylate]
0.15 | 0.17 | Cc1cc(Nc2nn(C3(CC#N)CCN(c4ccc(C#N)cn4)CC3)c3cc[nH]c(=O)c23)ccc1C(=O)N1CCSCC1 [Example 15-5, 6-(4-(cyanomethyl)-4-(3-((3-methyl-4-(thiomorpholine-4-carbonyl)phenyl)amino)-4-oxo-4,5-dihydro-1H-pyrazolo[4,3-c]pyridin-1-yl)piperidin-1-yl)nicotinonitrile]
